Legend:
hippocampus of TBI rats = experiment: Controlled cortical impact TBI: hippocampal Western blot; assay type: in vivo, rat
Method: This study used male Sprague-Dawley rats weighing 300-350 g and aged 8 weeks, obtained from DBL Co. (Chungcheongbuk-do, Republic of Korea). The rats were housed in a controlled environment with a temperature of 20 ± 2 °C, a relative humidity of 55 ± 5%, and a 12-hour light/dark cycle. They were provided ad libitum access to food and water. To minimize stress associated with transportation, animals underwent a one-week acclimatization period before the start of the experiments. All experimental procedures were conducted in compliance with the guidelines of the National Institutes of Health for the care and use of laboratory animals and were approved by the Hallym University Institutional Animal Care and Use Committee (protocol # Hallym 2022-23, approved on July 15, 2022). This manuscript follows the principles outlined in the Animal research: reporting in vivo experiments (ARRIVE) guidelines.
A controlled cortical impact (CCI) model was used to induce TBI in rats. Animals were anesthetized with 1-1.5% isoflurane in a 30:70 oxygen-to-nitrous oxide mixture and securely positioned in a stereotaxic frame. A 3 mm craniotomy was performed using a portable drill at a site 2.8 mm lateral to the midline and 3.0 mm posterior to Bregma. TBI was induced using an Impact One™ Stereotaxic Impactor (Leica Biosystems) equipped with a 3 mm flat-tip, set to deliver an impact at a velocity of 5 m/s and a depth of 3 mm. Throughout the procedure, body temperature was maintained at 36-37.5°C using a homeothermic blanket system to prevent hypothermia. […] At designated time points (3 hours, 24 hours, or 2 weeks post-injury), animals were euthanized via transcardial perfusion with saline, followed by 4% paraformaldehyde (PFA). Brains were post-fixed in 4% PFA for 1 hour, cryoprotected in 30% sucrose, and sectioned at a 30 μm thickness using a cryostat microtome (CM1850; Leica, Wetzlar, Germany). Brain sections were stored in cryoprotectant solution at 4°C until further analysis.
Hippocampal samples were homogenized in a lysis buffer containing RIPA buffer (IBS-BR002, iNtRON, Republic of Korea), phosphatase inhibitor (Sigma, USA), and protease inhibitor (Sigma, USA). The homogenates were centrifuged at 14,000 × g for 20 minutes at 4°C, and the supernatants were collected. Protein concentrations were determined using the Bradford protein assay. For analysis, 25 μg of protein from each sample was mixed with SDS loading buffer, separated through SDS-PAGE, and transferred onto PVDF membranes. Membranes were blocked for 2 hours at room temperature with either 5% skim milk or 3% BSA to minimize nonspecific binding. Subsequently, the membranes were incubated overnight at 4°C with primary antibodies diluted in blocking buffer. The following primary antibodies were used: p-p38 MAPK (1:1000, Cell Signaling), p-eIF2α (1:1000, Cell Signaling), p-PERK (1:1000, Cell Signaling), LAMP2 (1:1000, Invitrogen), LC3B (1:1000, Invitrogen), IL-1β (1:500, Gene Tex), TNF-α (1:500, Abcam), and β-actin (1:10,000, Cell Signaling). After primary antibody incubation, membranes were washed in TBS-T (Bio-Rad) and incubated with secondary antibodies for 1 hour at room temperature. Signals were visualized using a chemiluminescence detection system and captured with a bioimaging instrument (Amersham Imager 680, Marlborough, USA).

[1] = system: primary hippocampal neurons; experiment: Scratch injury: p-PKA analysis; assay type: cell-based, rat; details: 10 μM AMX immediately after scratch, 6 hours post-injury
Method: Primary hippocampal neurons were obtained from embryonic day 18 (E18) Sprague-Dawley rat embryos. Pregnant rats were anesthetized using 2-3% isoflurane in a gas mixture of 70% nitrous oxide and 30% oxygen. Following euthanasia, the hippocampi were carefully dissected, minced, and enzymatically dissociated using TrypLE Express (Gibco, NY, USA) for 10 minutes at 37°C. The tissue was further mechanically dissociated using fire-polished glass pipettes, and the resulting cell suspension was filtered through a 70 μm cell strainer to remove debris. Neurons were seeded at a density of 3 × 10^5 cells per well in 24-well plates pre-coated with poly-L-lysine (Sigma-Aldrich, Saint Louis, MO, USA). […]
A scratch injury model was used to mimic TBI in vitro. […] After the treatment period, neuronal damage and recovery were assessed using appropriate evaluation methods.
Six hours after the scratch assay, cellular activity was terminated by replacing the culture medium with 0.1 M HCl. Cell lysates were then collected and analyzed for PKA activity using a commercial PKA kinase activity assay kit (Abcam, ab139435), following the manufacturer's protocol. […] Substrate phosphorylation was detected using a phospho-specific primary antibody and an HRP-conjugated secondary antibody. […] PKA activity was quantified as optical density (OD) values and expressed relative to control samples.

[2] = system: primary hippocampal neurons; experiment: Scratch injury: MAP2 / NeuN immunocytochemistry; assay type: cell-based, rat; details: scratched neurons, 24 hours after scratch
Method: Primary hippocampal neurons were obtained from embryonic day 18 (E18) Sprague-Dawley rat embryos. Pregnant rats were anesthetized using 2-3% isoflurane in a gas mixture of 70% nitrous oxide and 30% oxygen. Following euthanasia, the hippocampi were carefully dissected, minced, and enzymatically dissociated using TrypLE Express (Gibco, NY, USA) for 10 minutes at 37°C. The tissue was further mechanically dissociated using fire-polished glass pipettes, and the resulting cell suspension was filtered through a 70 μm cell strainer to remove debris. Neurons were seeded at a density of 3 × 10^5 cells per well in 24-well plates pre-coated with poly-L-lysine (Sigma-Aldrich, Saint Louis, MO, USA). Cells were maintained in neurobasal medium supplemented with B-27 (Thermo Fisher Scientific, Waltham, MA, USA), GlutaMAX (Gibco), and penicillin-streptomycin. The cultures were incubated at 37.5°C in a humidified atmosphere containing 5% CO₂. After seven days of growth, neurons were fixed with 4% paraformaldehyde (PFA) for 15 minutes at room temperature and subsequently stored at 4°C until their further use for immunostaining.
A scratch injury model was used to mimic TBI in vitro. […] After the treatment period, neuronal damage and recovery were assessed using appropriate evaluation methods. […]

[3] = hippocampus, 24 hours after TBI
[4] = rat hippocampus, 24 hours post-TBI
[5] = rat hippocampus, 24 hours post-TBI, vs TBI-vehicle

Question: `CC(C)c1ccc2oc3nc(N)c(C(=O)O)cc3c(=O)c2c1` [AMX, amlexanox] was tested. Which “IL-1β expression (Western blot)” value (hippocampus of TBI rats; [3]) did it give?
Answer: markedly reduced the expression of both cytokines

Question: And the “TNF-α expression (Western blot)” value (hippocampus of TBI rats; [3])?
Answer: markedly reduced the expression of both cytokines

Question: What about the LAMP2 expression (hippocampus of TBI rats; [4]) of the same compound?
Answer: preserved LAMP2 and LC3B expression

Question: And the LC3B expression (hippocampus of TBI rats; [4])?
Answer: preserved LAMP2 and LC3B expression

Question: What about the “phosphorylation of PERK” value (hippocampus of TBI rats; [5]) of the same compound?
Answer: significantly reduced the phosphorylation levels

Question: What about the “phosphorylation of eIF2α” value (hippocampus of TBI rats; [5]) of the same compound?
Answer: significantly reduced the phosphorylation levels

Question: What about the “phosphorylation of p38 MAPK” value (hippocampus of TBI rats; [5]) of the same compound?
Answer: significantly reduced the phosphorylation levels

Question: And the “p-PKA levels after scratch injury (ELISA)” value [1]?
Answer: restored cAMP and p-PKA levels

Question: And the “MAP2 fluorescence intensity (dendritic loss)” value [2]?
Answer: Increased MAP2 fluorescence intensity

Question: What about the “number of NeuN-positive neurons” value [2] of the same compound?
Answer: significantly higher
